In article PMC10304387, “In Vitro and In Silico Evaluation of Anticholinesterase and Antidiabetic Effects of Furanolabdanes and Other Constituents from Graptophyllum pictum (Linn.) Griffith” (Molecules, 2023):
Values after ≈ are worked out from the molar mass of the structure shown. Where two headings read alike, the source gives them in different places.

Experiments:
[1] = molecular target: T1, acetylcholinesterase (AChE) (Electrophorus electricus, UniProt O42275); assay: biochemical; conditions: for inhibition at 100 µg/mL: read-out: percentage inhibition of AChE, at 100 µg/mL
α-amylase = molecular target: T2, α-amylase (Sus scrofa, UniProt P00690); assay: α-amylase inhibition (starch–iodine method); conditions: for inhibition at 100 µg/mL: read-out: percentage inhibition of α-amylase
T2 sequence (P00690 16-511): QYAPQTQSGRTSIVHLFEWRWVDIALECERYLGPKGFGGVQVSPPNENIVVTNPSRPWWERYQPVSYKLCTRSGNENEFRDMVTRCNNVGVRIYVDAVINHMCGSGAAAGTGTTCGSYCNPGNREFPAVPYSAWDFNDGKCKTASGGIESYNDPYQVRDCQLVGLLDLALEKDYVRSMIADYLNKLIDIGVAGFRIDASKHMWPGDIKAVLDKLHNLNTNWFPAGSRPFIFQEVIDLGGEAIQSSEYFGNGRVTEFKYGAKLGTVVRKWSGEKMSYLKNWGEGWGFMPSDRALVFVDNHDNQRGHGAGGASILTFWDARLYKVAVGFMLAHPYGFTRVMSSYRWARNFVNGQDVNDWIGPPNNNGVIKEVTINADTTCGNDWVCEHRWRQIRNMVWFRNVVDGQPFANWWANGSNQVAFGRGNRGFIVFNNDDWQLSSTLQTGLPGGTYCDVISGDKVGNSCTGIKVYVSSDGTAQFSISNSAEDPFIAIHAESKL
Description: The inhibition of α-amylase was determined using starch–iodine method with few modifications [64, 65]. Next, 50 µL of α-amylase from porcine pancreas in pH 6.9 phosphate buffer prepared with 6 mM NaCl and 25 µL of sample solutions was mixed in a 96-well microplate. The mixture was pre-incubated for 10 min at 37 °C. Next, 50 µL of starch solution (0.05%) was added and incubated for 10 min at 37 °C. Following incubation, the reaction was completed by adding HCl (0.1 M, 25 µL) and Lugol (100 µL) solutions, and the absorbance was recorded at 630 nm using a Multiskan Go microplate reader spectrophotometer (Thermo Fischer Scientific, Waltham, MA, USA).

[2] = molecular target: butyrylcholinesterase (BChE) (Equus caballus, UniProt P81908); assay: biochemical; conditions: for inhibition at 100 µg/mL: read-out: percentage inhibition of BChE
Description: The anticholinesterase activity of the extracts and compounds was determined spectrophotometrically via the acetylcholinesterase (AChE) and butyrylcholinesterase (BChE) enzyme inhibition assay method described by Ellman with minor modifications [62, 63]. AChE and BChE from electric eel and horse serum, respectively, were used. The substrates of the reactions were acetylthiocholine iodide and butyrylthiocholine chloride. The activity of the cholinesterase was monitored using DTNB (5,5′-Dithio-bis(2-nitrobenzoic) acid). […] A Multiskan Go microplate reader spectrophotometer (Thermo Fischer Scientific, Waltham, MA, USA) was used to read optical densities.

α-glucosidase = α-glucosidase inhibitory activity (PNPG substrate); design: IC50 ± SEM (α-glucosidase): unit not given beside the values; conditions: for IC50 ± SEM (α-glucosidase): Table 2 prints no unit, repeats Table 1 values; for percentage inhibition of α-glucosidase: at 100 µg/mL; for IC50 α-Glucosidase: mean ± SEM of three measurements, highest test concentration 100 µg/mL
[3] = molecular target: T1, acetylcholinesterase (AChE); conditions: read-out: IC50 ± SEM (Acetylcholinesterase); Table 2 prints no unit; repeats Table 1 values

Sequence of butyrylcholinesterase (BChE) (P81908 whole entry): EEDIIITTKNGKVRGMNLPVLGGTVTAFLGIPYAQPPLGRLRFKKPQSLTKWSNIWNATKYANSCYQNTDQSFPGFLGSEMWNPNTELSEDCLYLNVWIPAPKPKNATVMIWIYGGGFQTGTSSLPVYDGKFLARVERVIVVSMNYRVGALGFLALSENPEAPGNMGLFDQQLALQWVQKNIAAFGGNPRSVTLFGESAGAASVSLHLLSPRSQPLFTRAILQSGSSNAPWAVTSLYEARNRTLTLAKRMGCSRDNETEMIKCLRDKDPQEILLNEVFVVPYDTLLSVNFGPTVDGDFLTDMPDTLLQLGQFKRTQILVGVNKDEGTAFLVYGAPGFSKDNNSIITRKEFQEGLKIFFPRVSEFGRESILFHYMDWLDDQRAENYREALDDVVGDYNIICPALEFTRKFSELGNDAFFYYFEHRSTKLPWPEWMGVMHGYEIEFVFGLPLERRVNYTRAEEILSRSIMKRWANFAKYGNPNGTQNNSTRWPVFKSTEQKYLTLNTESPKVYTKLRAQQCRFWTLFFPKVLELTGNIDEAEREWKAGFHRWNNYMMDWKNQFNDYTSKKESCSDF
T1 sequence (O42275 24-633): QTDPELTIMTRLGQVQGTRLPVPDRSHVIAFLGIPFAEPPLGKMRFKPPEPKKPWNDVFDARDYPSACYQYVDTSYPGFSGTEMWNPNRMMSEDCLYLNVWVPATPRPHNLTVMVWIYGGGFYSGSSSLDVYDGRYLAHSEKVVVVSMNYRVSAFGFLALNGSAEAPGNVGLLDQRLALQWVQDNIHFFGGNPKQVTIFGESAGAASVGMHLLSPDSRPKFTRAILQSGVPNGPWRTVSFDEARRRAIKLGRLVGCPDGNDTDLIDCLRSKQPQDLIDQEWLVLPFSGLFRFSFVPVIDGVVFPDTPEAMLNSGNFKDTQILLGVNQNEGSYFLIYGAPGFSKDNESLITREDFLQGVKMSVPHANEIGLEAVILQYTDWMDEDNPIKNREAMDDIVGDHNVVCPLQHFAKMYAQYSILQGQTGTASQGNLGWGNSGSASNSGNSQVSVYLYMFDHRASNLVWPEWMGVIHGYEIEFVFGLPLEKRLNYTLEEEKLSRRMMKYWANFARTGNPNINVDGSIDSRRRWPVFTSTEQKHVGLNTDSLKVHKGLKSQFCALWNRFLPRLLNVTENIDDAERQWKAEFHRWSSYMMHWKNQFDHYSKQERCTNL

In the case of `CC1=CC2OC3OCC4(CCCC3(C)C24)C1CC(=O)c1ccoc1` (stereo not drawn) [Hypopurin E], the IC50 [1] is reported as > 304 µM, the inhibition at 100 µg/mL [1] is reported as 20.4 ± 0.56% and the IC50 (α-amylase) is reported as 225 µM. It also gave an inhibition at 100 µg/mL (α-amylase) of 53.9 ± 0.52%, an IC50 [2] of 265 µM and an inhibition at 100 µg/mL [2] of 52.8 ± 1.07%. For the same molecule, the “IC50 ± SEM (α-glucosidase)” value (α-glucosidase) was 76.33 ± 1.10, the “percentage inhibition of α-glucosidase” value (α-glucosidase) was 54.79 ± 0.85% and the “IC50 α-Glucosidase” value (α-glucosidase) was 76.33 ± 1.10 µg/mL (≈ 232 µM). For the same molecule, the IC50 [3] was > 304 µM.
In the case of `CC[C@H](CC[C@@H](C)[C@H]1CC[C@H]2[C@@H]3CC=C4C[C@@H](O[C@@H]5O[C@H](CO)[C@@H](O)[C@H](O)[C@H]5O)CC[C@]4(C)[C@H]3CC[C@]12C)C(C)C` [β-Sitosterol glucoside, 3β-O-D-glucopyranosyl-β-sitosterol], the IC50 [1] is reported as > 173 µM, the inhibition at 100 µg/mL [1] is reported as 30.45 ± 0.23% and the IC50 (α-amylase) is reported as > 173 µM. For the same molecule, the IC50 [2] was > 173 µM and the “IC50 α-Glucosidase” value (α-glucosidase) was >100 µg/mL.
With `CC[C@H](/C=C/[C@@H](C)[C@H]1CC[C@H]2[C@@H]3CC=C4C[C@@H](O[C@@H]5O[C@H](CO)[C@@H](O)[C@H](O)[C@H]5O)CC[C@]4(C)[C@H]3CC[C@]12C)C(C)C` [Stigmasterol glucoside, Stigmasterol 3-O-β-D-glucopyranoside] the IC50 [1] was > 174 µM, the inhibition at 100 µg/mL [1] was 25.2 ± 0.94% and the IC50 (α-amylase) was > 174 µM. For the same molecule, the IC50 [2] was > 174 µM and the “IC50 α-Glucosidase” value (α-glucosidase) was >100 µg/mL.
For `COc1ccc2c3c1O[C@H]1C[C@@H](O)C=C[C@@]31CCN(C)C2` [Galantamine, galantamine, reference compound], the inhibition at 100 µg/mL [2] was 73.85 ± 0.3%.
With `C=C(C)[C@@H]1CC[C@]2(C)CC[C@]3(C)[C@H](CC[C@@H]4[C@@]5(C)CC[C@H](O)C(C)(C)[C@@H]5CC[C@]43C)[C@@H]12` [Lupeol] the IC50 [1] was > 234 µM, the IC50 (α-amylase) was > 234 µM and the IC50 [2] was > 234 µM. The “percentage inhibition of α-glucosidase” value (α-glucosidase) was 60.91 ± 0.76% and the “IC50 α-Glucosidase” value (α-glucosidase) was 69.75 ± 0.42 µg/mL (≈ 163 µM).
In the case of `CC1=C[C@H]2OC(=O)[C@@]3(C)CCC[C@@](C)([C@@H]23)[C@H]1CC(=O)c1ccoc1` [Hypopurin A], the IC50 [1] is reported as > 304 µM, the inhibition at 100 µg/mL [1] is reported as 40.2 ± 0.75% and the IC50 (α-amylase) is reported as 185 µM. It also gave an inhibition at 100 µg/mL (α-amylase) of 65.8 ± 0.84%, an IC50 [2] of 177 µM and an inhibition at 100 µg/mL [2] of 64.8 ± 0.93%. The “IC50 ± SEM (α-glucosidase)” value (α-glucosidase) was 99.25 ± 0.96, the “percentage inhibition of α-glucosidase” value (α-glucosidase) was 50.13 ± 0.81% and the “IC50 α-Glucosidase” value (α-glucosidase) was 99.25 ± 0.96 µg/mL (≈ 302 µM). For the same molecule, the IC50 [3] was > 304 µM.
For `CC1=C[C@H]2OC3OC(=O)[C@@]4(C)CCC[C@@]3([C@@H]24)[C@H]1CC(=O)c1ccoc1` [Hypopurin B], the IC50 [1] was > 292 µM, the inhibition at 100 µg/mL [1] was 24.8 ± 0.33% and the IC50 (α-amylase) was 203 µM. For the same molecule, the inhibition at 100 µg/mL (α-amylase) was 56.68 ± 0.24%, the IC50 [2] was 196 µM and the inhibition at 100 µg/mL [2] was 61.8 ± 1.15%. The “IC50 ± SEM (α-glucosidase)” value (α-glucosidase) was 71.41 ± 0.98, the “percentage inhibition of α-glucosidase” value (α-glucosidase) was 51.95 ± 0.63% and the “IC50 α-Glucosidase” value (α-glucosidase) was 71.41 ± 0.98 µg/mL (≈ 209 µM). For the same molecule, the IC50 [3] was > 292 µM.
In the case of `C[C@H]1O[C@H](O[C@H]2[C@H](O)[C@@H](O)[C@@H](O[C@H]3[C@H](O)[C@@H](O)C(O)O[C@@H]3CO)O[C@@H]2CO)[C@H](O)[C@@H](O)[C@@H]1N[C@H]1C=C(CO)[C@@H](O)[C@H](O)[C@H]1O` (stereo partly drawn) [Acarbose, acarbose, reference compound], the inhibition at 100 µg/mL (α-amylase) is reported as 75.84 ± 0.52% and the “percentage inhibition of α-glucosidase” value (α-glucosidase) is reported as 51.35 ± 0.65%.
